The results in this text go back to ChEMBL document CHEMBL1145985, “Poly(ethylene glycol) transport forms of vancomycin: a long-lived continuous release delivery system” (J Med Chem, 2003).

≈ marks a conversion by molar mass, not a printed value. A value given as a limit tells only on which side of the number the result lay.

Data set [1] can be described thus: Half-life in rat plasma. It is filed as ADME, organism-based.
Data set [2] is described as follows: Solubility was measured in saline at 25 degree C. It is filed as physicochemical.
Data set [3] can be described thus: Half-life in human plasma. It is filed as ADME, cell-free.
The test system of data set [4] is Rattus norvegicus. The experiment in a line: (§1) Volume of distribution at a steady state measured after intravenous bolus administration of 50 mg/kg of compound to rats. More on the design: dose 50 mg/kg, route intravenous. Conditions: in vivo. It is filed as ADME, organism-based.
Data set [5] in a line: Maximum plasma concentration measured after intravenous bolus administration of 50 mg/kg of compound to rats. Conditions: rat. More on the design: dose 50 mg/kg, route intravenous. It is filed as ADME, organism-based.
For data set [6], the system named is Rattus norvegicus. The experiment in a line: (§2) Clearance measured after intravenous bolus administration of 50 mg/kg of compound to rats. The conditions noted are these: in vivo. It is filed as ADME, organism-based. More on the design: dose 50 mg/kg, route intravenous.
The nature of data set [7]: Area under the curve measured after intravenous bolus administration of 50 mg/kg of compound to rats. On the set-up: dose 50 mg/kg, route intravenous. Conditions: rat, in vivo. It is filed as ADME, organism-based.
Data set [8] has as its system Rattus norvegicus. The experiment in a line: (§3) Circulatory half life measured after intravenous bolus administration of 50 mg/kg of compound to rats. It is filed as ADME, organism-based. On the set-up: dose 50 mg/kg, route intravenous. The conditions noted are these: in vivo.
The species entered for data set [9] is Mus musculus. The experiment in a line: Anti-microbial activity against Staphylococcus aureus measured as percent survival of mice after pre challenge. It is filed as functional.
The species entered for data set [10] is Mus musculus. The experiment in a line: Anti-microbial activity against Staphylococcus aureus measured as percent survival of mice 1 hr post challenge. More on the design: concentration or dose not given beside the values. It is filed as functional.
The nature of data set [11]: as §1. It is filed as ADME, organism-based. More on the design: dose 50 mg/kg, route intravenous. The conditions noted are these: rat, in vivo, read-out: Vss.
A short description of data set [12]: as §2. It is filed as ADME, organism-based. More on the design: dose 50 mg/kg, route intravenous. The conditions noted are these: rat, in vivo.
Data set [13] in a line: as §3. It is filed as ADME, organism-based. Conditions: rat, in vivo. On the set-up: dose 50 mg/kg, route intravenous.

For the compound `O=C(O)COCCO`, in data set [1], the half-life is > 24 h. The same compound yielded a solubility in [2] of 128 mg/mL (≈ 1070 mM).

For the compound `CN[C@H](CC(C)C)C(=O)N[C@H]1C(=O)N[C@@H](CC(N)=O)C(=O)N[C@H]2C(=O)N[C@H]3C(=O)N[C@H](C(=O)N[C@H](C(=O)O)c4cc(O)cc(O)c4-c4cc3ccc4O)[C@H](O)c3ccc(c(Cl)c3)Oc3cc2cc(c3OC2OC(CO)C(O)C(O)C2OC2CC(C)(NC(=O)OCc3cc(C)c(OC(=O)C(C)NC(=O)COCCO)c(C)c3)C(O)C(C)O2)Oc2ccc(cc2Cl)[C@H]1O` (some centres undefined), the half-life in data set [3] was > 24 h; in data set [1] it was 16 h. Moreover, the Vss in data set [4] amounted to 2.6408 L/kg. The same compound yielded a Cmax in [5] of 47.9 µg/mL. The CL in data set [6] came out at 2.972 mL/min/kg. Besides, the AUC in [7] was 282 µg·h/mL. The T1/2 in data set [8] came to 4.09 h. The solubility in data set [2] came out at 122 mg/mL (≈ 67.8 mM). Moreover, the values for the Survival in data set [9] and in data set [10] were 80% and 100%, respectively.

As for `CN[C@H](CC(C)C)C(=O)N[C@H]1C(=O)N[C@@H](CC(N)=O)C(=O)N[C@H]2C(=O)N[C@H]3C(=O)N[C@H](C(=O)N[C@H](C(=O)O)c4cc(O)cc(O)c4-c4cc3ccc4O)[C@H](O)c3ccc(c(Cl)c3)Oc3cc2cc(c3OC2OC(CO)C(O)C(O)C2OC2CC(C)(NC(=O)OCc3cc(C)c(OC(=O)COCCO)c(C)c3)C(O)C(C)O2)Oc2ccc(cc2Cl)[C@H]1O` (some centres undefined), the results for the half-life in data set [3] and in [1] were 6.6 h and 2 h, respectively. The compound further had a solubility in data set [2] of 131 mg/mL (≈ 75.7 mM). Moreover, in data set [10], the Survival amounted to 100%.

Take `CN[C@H](CC(C)C)C(=O)N[C@H]1C(=O)N[C@@H](CC(N)=O)C(=O)N[C@H]2C(=O)N[C@H]3C(=O)N[C@H](C(=O)N[C@H](C(=O)O)c4cc(O)cc(O)c4-c4cc3ccc4O)[C@H](O)c3ccc(c(Cl)c3)Oc3cc2cc(c3OC2OC(CO)C(O)C(O)C2OC2CC(C)(NC(=O)OCc3cc(C)c(OC(=O)NCCOCCO)c(C)c3)C(O)C(C)O2)Oc2ccc(cc2Cl)[C@H]1O` (some centres undefined): the half-life in data set [3] was > 24 h; in data set [1] it was > 24 h; in data set [13] it was 9.12 h. Moreover, the Vd in data set [11] is 1.65 L/kg. For the same compound, the concentration in data set [5] peaked (Cmax) at 54.6 µg/mL. The clearance in [12] (read-out: CL (converted)) is 1.17 mL/min/kg. In addition, the AUC in [7] was 717 µg·h/mL. This compound also had a solubility in data set [2] of 141 mg/mL (≈ 80.2 mM). Moreover, the Survival in [10] is reported as 90%.

`CN[C@H](CC(C)C)C(=O)N[C@H]1C(=O)N[C@@H](CC(N)=O)C(=O)N[C@H]2C(=O)N[C@H]3C(=O)N[C@H](C(=O)N[C@H](C(=O)O)c4cc(O)cc(O)c4-c4cc3ccc4O)[C@H](O)c3ccc(c(Cl)c3)Oc3cc2cc(c3OC2OC(CO)C(O)C(O)C2OC2CC(C)(NC(=O)OCc3cc(C)c(OC(=O)CNC(=O)COCCO)c(C)c3)C(O)C(C)O2)Oc2ccc(cc2Cl)[C@H]1O` (some centres undefined): the half-life in data set [3] was 27 h; in data set [1] it was 19 h; in data set [13], 10.5 h. The Vd in data set [11] is 2.72 L/kg. In [5], this compound displayed a Cmax of 25.5 µg/mL. For the same compound, the clearance in data set [12] (read-out: CL (converted)) was 2.19 mL/min/kg. Besides, the AUC in data set [7] is 386 µg·h/mL. Further, in data set [2], the concentration in solution (solubility) was 145 mg/mL (≈ 81.2 mM). Also, the Survival in data set [10] stood at 100%.

With `CN[C@H](CC(C)C)C(=O)N[C@H]1C(=O)N[C@@H](CC(N)=O)C(=O)N[C@H]2C(=O)N[C@H]3C(=O)N[C@H](C(=O)N[C@H](C(=O)O)c4cc(O)cc(O)c4-c4cc3ccc4O)[C@H](O)c3ccc(c(Cl)c3)Oc3cc2cc(c3OC2OC(CO)C(O)C(O)C2OC2CC(C)(NC(=O)OCc3cc(C)c(OC(=O)NCCOCCOCCNC(=O)CNC(=O)CC(NC(=O)COCCO)C(=O)NCC(=O)NCCOCCOCCNC(=O)Oc4c(C)cc(COC(=O)NC5(C)CC(OC6C(Oc7c8cc9cc7Oc7ccc(cc7Cl)[C@@H](O)[C@@H](NC(=O)[C@@H](CC(C)C)NC)C(=O)N[C@@H](CC(N)=O)C(=O)N[C@H]9C(=O)N[C@H]7C(=O)N[C@H](C(=O)N[C@H](C(=O)O)c9cc(O)cc(O)c9-c9cc7ccc9O)[C@H](O)c7ccc(c(Cl)c7)O8)OC(CO)C(O)C6O)OC(C)C5O)cc4C)c(C)c3)C(O)C(C)O2)Oc2ccc(cc2Cl)[C@H]1O` (some centres undefined), the values for the half-life in data set [3] and in data set [1] were > 24 h and 36 h, respectively. The same compound displayed a Vss in data set [4] of 1.341 L/kg. In addition, the concentration in data set [5] peaked (Cmax) at 107 µg/mL. The CL in data set [6] amounted to 0.383 mL/min/kg. The same compound gave an AUC in data set [7] of 2180 µg·h/mL. This compound displayed a T1/2 in data set [8] of 14.2 h. In addition, in data set [2], the solubility was found to be 141 mg/mL (≈ 36 mM). In addition, the Survival in [10] is given as 100%.

With `CN[C@H](CC(C)C)C(=O)N[C@H]1C(=O)N[C@@H](CC(N)=O)C(=O)N[C@H]2C(=O)N[C@H]3C(=O)N[C@H](C(=O)N[C@H](C(=O)O)c4cc(O)cc(O)c4-c4cc3ccc4O)[C@H](O)c3ccc(c(Cl)c3)Oc3cc2cc(c3OC2OC(CO)C(O)C(O)C2OC2CC(C)(NC(=O)OCc3cc(C)c(OC(=O)CNC(=O)CC(NC(=O)COCCO)C(=O)NCC(=O)Oc4c(C)cc(COC(=O)NC5(C)CC(OC6C(Oc7c8cc9cc7Oc7ccc(cc7Cl)[C@@H](O)[C@@H](NC(=O)[C@@H](CC(C)C)NC)C(=O)N[C@@H](CC(N)=O)C(=O)N[C@H]9C(=O)N[C@H]7C(=O)N[C@H](C(=O)N[C@H](C(=O)O)c9cc(O)cc(O)c9-c9cc7ccc9O)[C@H](O)c7ccc(c(Cl)c7)O8)OC(CO)C(O)C6O)OC(C)C5O)cc4C)c(C)c3)C(O)C(C)O2)Oc2ccc(cc2Cl)[C@H]1O` (some centres undefined), the figures for the half-life in data set [3] and in data set [1] were > 24 h and 20 h, respectively. In [4], the Vss worked out at 3.598 L/kg. In data set [5], this compound came in with a Cmax of 29.3 µg/mL. The CL in data set [6] amounted to 1.63 mL/min/kg. In addition, in [7], the AUC was found to be 513 µg·h/mL. Also, the T1/2 in data set [8] turned out to be 12.37 h. In data set [2], this compound showed a solubility of 120 mg/mL (≈ 33.6 mM). This compound also had a Survival in [10] of 100%.

As to `CN[C@H](CC(C)C)C(=O)N[C@H]1C(=O)N[C@@H](CC(N)=O)C(=O)N[C@H]2C(=O)N[C@H]3C(=O)N[C@H](C(=O)N[C@H](C(=O)O)c4cc(O)cc(O)c4-c4cc3ccc4O)[C@H](O)c3ccc(c(Cl)c3)Oc3cc2cc(c3O[C@@H]2O[C@H](CO)[C@@H](O)[C@H](O)[C@H]2O[C@H]2C[C@](C)(N)[C@H](O)[C@H](C)O2)Oc2ccc(cc2Cl)[C@H]1O` [VANCOMYCIN], the Vd in [11] stood at 0.309 L/kg. This compound registered a Cmax in [5] of 162 µg/mL. Further, the clearance in data set [12] was 10.7 mL/min/kg. The compound further showed an AUC in [7] of 78.8 µg·h/mL. Further, in [13], the half-life was 0.34 h. The Survival was 0% in data set [9] and 100% in [10].
